Reference: publication PMC6135396, “Repurposing antimalarial aminoquinolines and related compounds for treatment of retinal neovascularization” (PLoS ONE, 2018)

How the values were obtained:
[1] = Cytotoxicity, ATP-Lite, HRECs; assay type: cell-based; settings: human, HREC cells; HRECs; read-out: Cytotoxicity LC50
Procedure: (§1) Fa2N-4 immortalized human hepatocytes (Xenotech) or HREC cells were grown to subconfluency in wells of a 96-well plate and exposed to different concentrations of compounds for 24 h after which the cells were washed and the media and compounds replaced. The cells were returned to the incubator for another 24 h. The extent of cell death (cell lysis) was determined by ATP-Lite reagent (Perkin-Elmer).

HRECs = experiment: Cytotoxicity, ATP-Lite, HRECs; assay type: cell-based; settings: tested up to 100 μM
Procedure: as §1

[2] = tested on: human retinal microvascular endothelial cells (HRECs); experiment: In vitro HREC tube formation assay; assay type: cell-based
Procedure: In vitro tube formation assays were carried out as previously described. Briefly, near confluent microvascular endothelial cells were pretreated with VEGF (100 ng/ml) for 2 h and then treated for 24 h with test compounds at serial concentrations, as indicated. Cells without VEGF treatment or with VEGF only were used as control. The cells were then detached and plated sparsely (2.5 ×10^4/well) on 24-well plates coated with 12.5% (v/v) Matrigel (BD, Franklin Lakes, NJ) and left overnight. The medium was then aspirated and 250 μl/well of 12.5% Matrigel was overlaid on the cells for 2 h to allow the polymerization of Matrigel, followed by addition of 500 μl/well of basal medium MCD131 with 10% fetal calf serum (FCS) for 24 h. The following day, the culture plates were observed under a phase contrast microscope and photographed at random in five fields (×10). The tubule length (mm/mm^2) per microscope field was quantified.

[3] = Plasma-protein binding, human; assay type: in vitro ADME
Plasma stability, rat = assay type: in vitro ADME
[4] = Hepatic microsome stability, human; assay type: in vitro ADME; settings: liver microsomes, pH 7.4, terminal half-life of a two-phase exponential decay, read-out: Hepatic microsome stability T1/2
Procedure: Hepatic microsomes stability assays were performed as reported before. […] After preincubation at 37°C for 10 min, enzyme reactions were initiated by adding 120 μL of NADPH-generating system (2 mM NADP^+, 10 mM glucose-6-phosphate, 0.4 U/ml glucose-6-phosphate dehydrogenase, and 5 mM MgCl2) in the presence of 100 mM potassium phosphate buffer (pH 7.4). The final concentration of each model compound used was 1 μM. The microsomal concentrations used were 1.0 mg/mL. Compounds were incubated in microsomes for 0, 5, 15, 30 and 60 min. The reactions were stopped by the addition of ice cold ACN and the reaction mixtures were centrifuged at 10,000g for 10 min before the supernatant was removed for analysis.
Except for the primary assay in the HTS campaign, all experiments were repeated at least three times. Results are expressed as mean ± SEM. The Mann-Whitney test was used to determine statistical significance of the densitometry data of Western blot analysis. Unpaired two-tailed Student’s t-test was performed for the significance of the results of ELISA and in vitro tubule formation assay. ANOVA was used to determine the significance in vivo CNV models using the Tukey post-hoc test for multiple comparisons. […] T1/2 was calculated using the best fit curve resulting from non-linear (human) or linear (mouse and rat) regression analyses using Prism 7.

[5] = Tissue distribution in the mouse eye after intravitreal injection; assay type: in vivo; settings: 7 d after IVT administration
Procedure: Mice were assigned to groups (n = 6/group) that received either 50 μg compound, or vehicle via intravitreal injection (1 μl volume). One day after injection, ½ of the mice (n = 3 / group) mice were euthanized. The eyes were enucleated and the vitreous humor, retina, and RPE/Choroid/sclera were isolated and snap frozen in liquid N2. The remaining mice in each treatment group (n = 3 / group) were euthanized and the same tissues collected. The quantity of compound in the tissues (n = 6 eyes / treatment group) was measured using LC-MS/MS.

[6] = tested on: choroidal neovascularization (CNV) lesions; experiment: Laser-induced CNV mouse model; assay type: in vivo; settings: for CNV lesion volume vs vehicle control: two injections, choroidal flatmounts, 14 days post-laser
APJ = biological target: T1, APJ (Homo sapiens, UniProt P35414); experiment: Radioligand competition binding assay, [125I]-Glp65, Nle75, Tyr77-Ap13 on APJ membranes; parameters: purchased Perkin Elmer; settings: tested as high as 100 μM
T1 sequence (P35414 1-380): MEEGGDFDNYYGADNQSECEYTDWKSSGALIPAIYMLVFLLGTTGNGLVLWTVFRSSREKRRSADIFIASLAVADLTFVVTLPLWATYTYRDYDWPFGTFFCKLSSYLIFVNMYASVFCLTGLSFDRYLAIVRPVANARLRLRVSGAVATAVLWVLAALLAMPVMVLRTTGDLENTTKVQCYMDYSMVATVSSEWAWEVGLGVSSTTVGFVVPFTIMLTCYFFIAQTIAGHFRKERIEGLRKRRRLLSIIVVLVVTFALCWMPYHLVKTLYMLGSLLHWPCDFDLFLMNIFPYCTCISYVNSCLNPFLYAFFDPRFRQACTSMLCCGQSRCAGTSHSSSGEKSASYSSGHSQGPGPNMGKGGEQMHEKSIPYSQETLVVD
Procedure: Soaking buffer (300 μl/well) was added to a 96-well GF/C filter plate (MultiScreen Harvest plate, Millipore) and left to equilibrate at room temperature for 3 h. […] Following incubation, contents were transferred from the OptiPlate to the pre-wet GF/C filter plate, and immediately underwent vacuum filtration. The filter plate was washed five times with 200 μl ice cold wash buffer and left at room temperature overnight to equilibrate. The next day, 20 μl scintillation liquid (Microscint 20, Perkin Elmer) was added and radioactivity quantified using a TopCount NXT (Perkin Elmer) microplate scintillation and luminescence counter. […] The Cheng & Prusoff equation was used to convert IC50 estimates to equilibrium dissociation constants [89].

CCN(CC)Cc1cc(Nc2ccnc3cc(Cl)ccc23)ccc1O [AQ, amodiaquine]
CC50 at 48 h [1]: > 100 µM | Cytotoxicity to HRECs (HRECs): Neither ML221 nor AQ were significantly toxic | Effect on Ap13-dependent increase in HREC tube formation ([2]; Ap13-induced, concentration-dependent): blocked Ap13-dependent increases in tube formation | Effect on VEGF-induced HREC tube formation ([2]; VEGF 100 ng/mL, absence of exogenous Ap13): blocked VEGF-induced tube formation | Plasma-protein binding ([3]; 1 μM): 88.2 % bound | Plasma-protein binding ([3]; 10 μM): 83.8 % bound | Plasma stability (Plasma stability, rat): 46.3 % remaining at 3 hrs | half-life at 1 μM [4]: 17 min | AQ level in plasma [5]: No detectable levels | CNV lesion size by optical coherence tomography vs vehicle treated eyes ([6]; 14 days post-laser injury, intravitreal AQ 5.0-50.0 μg): significantly smaller | CNV lesion volume vs vehicle control ([6]; AQ 5.0 μg intravitreal): not a statistically significant reduction | CNV lesion volume vs vehicle control ([6]; AQ 10.0 μg intravitreal): not a statistically significant reduction | CNV lesion volume vs vehicle control ([6]; AQ 25.0 μg intravitreal): statistically significant decrease | CNV lesion volume vs vehicle control ([6]; AQ 50.0 μg intravitreal): an even greater decrease | CNV lesion size in confocal images of agglutinin-stained choroidal flatmounts ([6]; intravitreal AQ): reduction in CNV lesion size at 10μg AQ and higher | Displacement of [125I]-Glp65, Nle75, Tyr7-Ap13 binding (APJ): did not displace
